The text below walks through data of US10669283B2, “Compound and pharmacologically acceptable salt thereof” (MEIJI SEIKA PHARMA CO., LTD., priority 2016, dated 2020).

The nature of data set [1]: Hepatic metabolic stability (rat liver microsome method). The conditions noted are these: rat liver microsomes 0.5 mg/mL, test substance 1 μM, NADPH 1 mM, 37° C., 30 minutes. Format: in vitro ADME. The method, then: Metabolic stability in rat liver microsomes was evaluated by the following method. In 100 mM of potassium phosphate buffer solution (pH 7.4), liver microsomes (concentration at reaction: 0.5 mg/mL) and the test substance (concentration at reaction: 1 μM) were preincubated at 37° C. Five minutes later, 100 mM of potassium phosphate buffer (pH 7.4) solution of NADPH (concentration at reaction: 1 mM) was mixed thereto to start the reaction. After a predetermined time passed, acetonitrile was mixed to the reaction mixture to stop the reaction. Here, the reaction time was 0 and 30 minutes, and drug concentration measurement was performed for each time period using LC-MS. The % remaining value of the test compound was calculated from the value for 0 minutes and the value for 30 minutes, using the calculation formula below: % Remaining=(Value for 30 Minutes/Value for 0 Minutes)×100
The results of measuring the rat liver microsome metabolic Stability (% remaining for 30-minute reaction) for the test compound by the above method were evaluated in accordance with the following evaluated basis; A: a % remaining rate of 75% or more, B: 60% or more and less than 75%, C: 45% or more and less than 60%, and D: less than 45%.
(Liver microsomes are a subcellular fraction often used to study metabolism.)

In another data set the test system is PDE4. Description: PDE4 inhibition, scintillation proximity assay (SPA). Format: biochemical. The essentials:
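Scintillation proximity read-out: [2,8-3H]-cAMP hydrolysis by PDE4 ran 120 min at room temperature in Tris-HCl pH 7.4 buffer with 8.3 mM MgCl2, 1.7 mM EGTA and 3 mg/mL BSA. Bead-bound product (YSi-SPA with ZnSO4, 15 min) counted; blank lacks enzyme, control has DMSO only.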
(In general: In a scintillation proximity assay essentially only radioactivity close to the scintillant gives light.)

Setting [2] is: scintillation proximity assay (SPA), evaluated as classes A, B, C, read-out: PDE4 Inhibitory Activity (concentration for the inhibition rate of 50%).
Where [3] appears, read: scintillation proximity assay, class symbols, read-out: PDE4 Inhibitory Activity.

Where two headings read alike, the source gives them in different places.

`OCC(F)(F)Oc1ccc(-c2nccs2)c2oc(N3CC4CC(C3)N4)nc12` [Example 249, 2-((2-(3,6-Diazabicyclo[3.1.1]heptan-3-yl)-7-(thiazol-2-yl)benzo[d]oxazol-4-yl)oxy)-2,2-difluoroethan-1-ol]: in data set [1], the “Residual ratio (% remaining for 30-minute reaction)” value was “B (60% or more and less than 75%)”. The IC50 with PDE4 (setting [2]) was under 100 nM.
As to `c1csc(-c2ccc(OC3CCOCC3)c3nc(N4CC5CCC(C4)N5)oc23)n1` [Example 254, 2-(3,8-Diazabicyclo[3.2.1]octan-3-yl)-4-((tetrahydro-2H-pyran-4-yl)oxy)-7-(thiazol-2-yl)benzo[d]oxazole], the “Residual ratio (% remaining for 30-minute reaction)” value in data set [1] is “A (a % remaining rate of 75% or more)”. Moreover, in the data set with PDE4 (setting [2]), the IC50 was under 100 nM.
In the case of `C[C@@H](O)COc1ccc(-c2nccs2)c2oc(N3CC4CC(C3)N4)nc12` [Example 259, (2R)-1-((2-(3,6-diazabicyclo[3.1.1]heptan-3-yl)-7-(thiazol-2-yl)benzo[d]oxazol-4-yl)oxy)propan-2-ol], the “Residual ratio (% remaining for 30-minute reaction)” value in data set [1] is on record as “A (a % remaining rate of 75% or more)”. Further, the IC50 in the data set with PDE4 (setting [2]) was under 100 nM.
In the same order, the values of `OC1CC(Oc2ccc(-c3nccs3)c3oc(N4CC5CC(C4)N5)nc23)C1` (stereo not drawn) [Example 285, 3-((2-(3,6-Diazabicyclo[3.1.1]heptan-3-yl)-7-(thiazol-2-yl)benzo[d]oxazol-4-yl)oxy)cyclobutan-1-ol] are “A (a % remaining rate of 75% or more)” and under 100 nM.
In the same order, the values of `c1csc(-c2ccc(OC3CCOCC3)c3nc(N4CC5CC(C4)N5)oc23)n1` [Example 294, 2-(3,6-Diazabicyclo[3.1.1]heptan-3-yl)-4-((tetrahydro-2H-pyran-4-yl)oxy)-7-(thiazol-2-yl)benzo[d]oxazole] are “A (a % remaining rate of 75% or more)” and under 100 nM.
Regarding `CC(C)(O)C(F)(F)Oc1ccc(-n2cccn2)c2oc(N3CC4CC(C3)N4)nc12` [Example 304, 1-((2-(3,6-Diazabicyclo[3.1.1]heptan-3-yl)-7-(1H-pyrazol-1-yl)benzo[d]oxazol-4-yl)oxy)-1,1-difluoro-2-methylpropan-2-ol], the “Residual ratio (% remaining for 30-minute reaction)” value in data set [1] is listed as “A (a % remaining rate of 75% or more)”. The IC50 in the data set with PDE4 (setting [2]) was under 100 nM.
With `Cc1csc(-c2ccc(OC(F)(F)C(C)(C)O)c3nc(N4CC5CC(C4)N5)oc23)n1` [Example 306, 1-((2-(3,6-Diazabicyclo[3.1.1]heptan-3-yl)-7-(4-methylthiazol-2-yl)benzo[d]oxazol-4-yl)oxy)-1,1-difluoro-2-methylpropan-2-ol], in data set [1], the “Residual ratio (% remaining for 30-minute reaction)” value is “A (a % remaining rate of 75% or more)”. Besides, the IC50 in the data set with PDE4 (setting [2]) was 100 to 1000 nM.
In the same order, the values of `OCC(F)(F)Oc1ccc(-c2ccccn2)c2oc(N3CC4CC(C3)N4)nc12` [Example 315, 2-((2-(3,6-Diazabicyclo[3.1.1]heptan-3-yl)-7-(pyridin-2-yl)benzo[d]oxazol-4-yl)oxy)-2,2-difluoroethan-1-ol] are “A (a % remaining rate of 75% or more)” and under 100 nM.
For `CC(C)(O)C(F)(F)Oc1ccc(-n2cccn2)c2oc(N3CC4CCC(C3)N4)nc12` [Example 316, 1-((2-(3,8-Diazabicyclo[3.2.1]octan-3-yl)-7-(1H-pyrazol-1-yl)benzo[d]oxazol-4-yl)oxy)-1,1-difluoro-2-methylpropan-2-ol] the same measures were “A (a % remaining rate of 75% or more)” and under 100 nM.
Take `CC(C)(O)C(F)(F)Oc1ccc(-c2ccccn2)c2oc(N3CC4CCC(C3)N4)nc12` [Example 317, 1-((2-(3,8-Diazabicyclo[3.2.1]octan-3-yl)-7-(pyridin-2-yl)benzo[d]oxazol-4-yl)oxy)-1,1-difluoro-2-methylpropan-2-ol]: the “Residual ratio (% remaining for 30-minute reaction)” value in data set [1] was “A (a % remaining rate of 75% or more)”. Further, in the data set with PDE4 (setting [2]), the IC50 is under 100 nM.
On to `Cc1csc(-c2ccc(OC(F)(F)C(C)(C)O)c3nc(N4CC5CCC(C4)N5)oc23)n1` [Example 318, 1-((2-(3,8-Diazabicyclo[3.2.1]octan-3-yl)-7-(4-methylthiazol-2-yl)benzo[d]oxazol-4-yl)oxy)-1,1-difluoro-2-methylpropan-2-ol], for which, in data set [1], the “Residual ratio (% remaining for 30-minute reaction)” value is “B (60% or more and less than 75%)”. Further, the IC50 in the data set on PDE4 (setting [2]) was under 100 nM.
Regarding `OCC(F)(F)Oc1ccc(-c2ccc(F)cn2)c2oc(N3CC4CC(C3)N4)nc12` [Example 319, 2-((2-(3,6-Diazabicyclo[3.1.1]heptan-3-yl)-7-(5-fluoropyridin-2-yl)benzo[d]oxazol-4-yl)oxy)-2,2-difluoroethan-1-ol], the “Residual ratio (% remaining for 30-minute reaction)” value in data set [1] was “A (a % remaining rate of 75% or more)”. The IC50 with PDE4 (setting [2]) was under 100 nM.
For `CC(C)(O)C(F)(F)Oc1ccc(-c2ncco2)c2oc(N3CC4CCC(C3)N4)nc12` [Example 321, 1-((2-(3,8-Diazabicyclo[3.2.1]octan-3-yl)-7-(oxazol-2-yl)benzo[d]oxazol-4-yl)oxy)-1,1-difluoro-2-methylpropan-2-ol] the same measures were “A (a % remaining rate of 75% or more)” and under 100 nM.
In the same order, the values of `CC(C)(O)C(F)(F)Oc1ccc(-n2nccn2)c2oc(N3CC4CCC(C3)N4)nc12` [Example 322, 1-((2-(3,8-Diazabicyclo[3.2.1]octan-3-yl)-7-(2H-1,2,3-triazol-2-yl)benzo[d]oxazol-4-yl)oxy)-1,1-difluoro-2-methylpropan-2-ol] are “A (a % remaining rate of 75% or more)” and under 100 nM.
With `c1csc(-c2ccc(O[C@H]3CCOC3)c3nc(N4CC5CC(C4)N5)oc23)n1` [Example 323, 2-(3,6-Diazabicyclo[3.1.1]heptan-3-yl)-4-(((S)-tetrahydrofuran-3-yl)oxy)-7-(thiazol-2-yl)benzo[d]oxazole], the “Residual ratio (% remaining for 30-minute reaction)” value in data set [1] was “B (60% or more and less than 75%)”. Also, the IC50 in the data set with PDE4 (setting [2]) is under 100 nM.
As to `c1csc(-c2ccc(O[C@@H]3CCOC3)c3nc(N4CC5CC(C4)N5)oc23)n1` [Example 324, 2-(3,6-Diazabicyclo[3.1.1]heptan-3-yl)-4-(((R)-tetrahydrofuran-3-yl)oxy)-7-(thiazol-2-yl)benzo[d]oxazole], the “Residual ratio (% remaining for 30-minute reaction)” value in data set [1] is reported as “A (a % remaining rate of 75% or more)”. Moreover, the IC50 in the data set with PDE4 (setting [2]) is under 100 nM.
In the case of `c1csc(-c2ccc(OC3COC3)c3nc(N4CC5CC(C4)N5)oc23)n1` [Example 325, 2-(3,6-Diazabicyclo[3.1.1]heptan-3-yl)-4-(oxetan-3-yloxy)-7-(thiazol-2-yl)benzo[d]oxazole], in data set [1], the “Residual ratio (% remaining for 30-minute reaction)” value is reported as “A (a % remaining rate of 75% or more)”. The IC50 with PDE4 (setting [3]) was under 100 nM.
Regarding `CC(C)(O)C(F)(F)Oc1ccc(-c2ncns2)c2oc(N3CC4CCC(C3)N4)nc12` [Example 327, 1-((2-(3,8-Diazabicyclo[3.2.1]octan-3-yl)-7-(1,2,4-thiadiazol-5-yl)benzo[d]oxazol-4-yl)oxy)-1,1-difluoro-2-methylpropan-2-ol], the “Residual ratio (% remaining for 30-minute reaction)” value in data set [1] is “B (60% or more and less than 75%)”. In addition, in the data set on PDE4 (setting [3]), the IC50 is under 100 nM.
